Measurements taken from US10233200B2, “Organomodified monosilyl compound, its preparation and applications thereof” (Momentive Performance Materials Inc., priority 2017, dated 2019).

How the values were obtained:
canola leaf = assay: Uptake of [C14]-2,4-D DMA salt into canola leaf; assay type: in vivo; settings: no adjuvant compound (0 % wt/vol), 2,4-D alone
Experimental: The uptake of [C^14]-2,4-dichlorophenoxyacetic acid, dimethylamine salt (2,4-D DMA salt) (1% a.e./100 L/ha) was determined in canola at 2 HAT and 24 HAT (Hours After Treatment) according to the method described by Lui, in Pro. 18th Asian-Pacific Weed Sci. Soc. Conf., pp. 561-566. Liu, Z Q; 2001.

[1] = Spreading of a 10 μL droplet of surfactant solution on polystyrene Petri dishes; assay type: physicochemical; settings: 10 μL droplet on polystyrene, after 30 seconds, 22 to 25° C., RH 50-70%
Experimental: Spreading was determined by applying a 10 μL droplet, of surfactant solution to polystyrene Petri dishes (Fisher Scientific) and measuring the spread diameter (mm) after 30 seconds, at a relative humidity between 50 and 70% (at 22 to 25° C.). The solution was applied with an automatic pipette to provide droplets of reproducible volume. Deionized water that was further purified with a Millipore filtration system was used to prepare the surfactant solutions.

## CNC.O=C(O)COc1ccc(Cl)cc1Cl [2,4-D alone, 2,4-dichlorophenoxyacetic acid, dimethylamine salt]
Canola leaf; 2 HAT
  Uptake % (2 HAT): 12.1e %
Canola leaf; 24 HAT
  Uptake % (24 HAT): 70.2 a %

## (H3C)3CCH2CH2—Si(CH3)2—CH2CH2CH2—O—CH2CH(OH)CH2N^+(CH3)2—CH2CH2CH2OH [Ex. 8, (H3C)3CCH2CH2—Si(CH3)2—CH2CH2CH2—O—CH2CH(OH)CH2N^+(CH3)2—CH2CH2CH2OH [(CH2OH)2(CH3)C—COO^−]]
[1]; 0.05 weight % compound
  Spread Diameter: 10 mm
[1]; 0.1 weight % compound
  Spread Diameter: 21 mm
[1]; 0.2 weight % compound
  Spread Diameter: 33 mm
